# According to patent US12552826B2, “PRMT5 inhibitors” (Merck Sharp & Dohme LLC, priority 2018, dated 2026):
# pEC50: −log10 of the molar value.
# Target: T1, PRMT5 (Homo sapiens, UniProt O14744)
# T1 construct: endogenous in cells; host or cells: MCF-7
# Experiment: PRMT5 Cell Target Engagement (TE) Assay
# Type: cell-based
# Settings: MCF-7 cells, 3 days treatment, nuclear SDMA by high content imaging
# From the text: The PRMT5 TE assay is a biomarker assay for identifying compounds that inhibit symmetric dimethylation of arginine (SDMA) of PRMT5 substrates. The following substrates have been reported for PRMT5: Histone H2A and H4 R3, Histone H3 R2, Histone H3 R8, spliceosome Sm proteins, ribosomal protein RPS10, p53, FEN1, nucleoplasmin, nucleolin, EGFR and EBNA. The assay will focus on detecting symmetrically dimethylated nuclear proteins using high content imaging technology. Detection of the expression of symmetrically dimethylated nuclear proteins is through a mixture of primary rabbit monoclonal antibodies to SDMA (CST 13222), which in turn recognized by an Alexafluor 488 dye-conjugated anti-rabbit IgG secondary antibody. The IN Cell Analyzer 2200 or Opera-Phenix measures nuclear Alexafluor 488 fluorescent dye intensity that is directly related to the level of expression of symmetrically dimethylated nuclear proteins at the single cell level. Nuclear AF488 dye intensities are compared to the mean value for DMSO treated cells (MIN) to report percent of inhibition for each compound-treated well.
# In this assay, the cell potency (EC50) of each compound was determined from a ten point (1:3 serial dilution; top compound concentration of 10000 nM) titration curve using the following outlined procedure. Each well of a BD falcon collagen coated black/clear bottom 384-well plate was seeded with 4000 MCF-7 cells in 30 μl media and allowed to attach for 5 hours. Media is ATCC-formulated Eagle's Minimum Essential Medium, Catalog No. 30-2003. The following components were added to the base medium: 0.01 mg/mL human recombinant insulin; fetal bovine serum to a final concentration of 10%. Additional 30 μl of media containing 2× compounds were added to each well. Cells were treated for 3 days in 37° C. CO2 incubator. On day 3, cells were fixed with Cytofix, permeabilized with 0.4% Triton-X-100/Cytofix, and washed with D-PBS without Ca/Mg. Cells were blocked with Licor Odessey blocking reagent for 1 hour at room temperature, followed by incubation with anti-SDMA (1:1000) antibody at 4° C. overnight. 1° antibody was removed, followed by three washings with DPBS without Ca/Mg and 0.05% Tween20. Hoechst (5 μg/mL), Cell Mask deep stain (1:2000) and Alexa488-conjugated goat anti-rabbit IgG (2 μg/mL) was added for 1 hour at room temperature. A final washing step (three washes) was performed before sealing plate for imaging on In Cell Analyzer 2200 or Opera-Phenix. Images from analyzer were uploaded to Columbus for image analysis. IC50 values were determined by 4 parameters robust fit of percent fluorescence units vs. (Log10) compound concentrations.
# T1 sequence (O14744 whole entry): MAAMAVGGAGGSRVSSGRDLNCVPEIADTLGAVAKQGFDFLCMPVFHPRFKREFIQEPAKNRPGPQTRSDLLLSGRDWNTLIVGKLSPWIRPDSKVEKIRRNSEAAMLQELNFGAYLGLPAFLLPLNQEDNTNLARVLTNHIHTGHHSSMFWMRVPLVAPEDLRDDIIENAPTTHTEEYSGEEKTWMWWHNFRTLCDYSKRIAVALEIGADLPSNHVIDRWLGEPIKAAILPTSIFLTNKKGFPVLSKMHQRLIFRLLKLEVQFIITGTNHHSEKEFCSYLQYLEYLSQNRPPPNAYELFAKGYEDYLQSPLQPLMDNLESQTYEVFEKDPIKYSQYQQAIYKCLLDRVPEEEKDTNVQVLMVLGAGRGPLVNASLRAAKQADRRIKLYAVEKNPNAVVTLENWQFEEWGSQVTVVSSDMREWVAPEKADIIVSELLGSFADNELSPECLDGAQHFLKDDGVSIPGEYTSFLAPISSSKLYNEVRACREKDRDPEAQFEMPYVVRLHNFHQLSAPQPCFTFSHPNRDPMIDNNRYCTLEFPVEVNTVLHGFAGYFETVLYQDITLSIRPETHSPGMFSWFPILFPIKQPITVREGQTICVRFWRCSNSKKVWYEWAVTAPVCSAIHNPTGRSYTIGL
# T1 sequence (Q9BQA1 whole entry partner): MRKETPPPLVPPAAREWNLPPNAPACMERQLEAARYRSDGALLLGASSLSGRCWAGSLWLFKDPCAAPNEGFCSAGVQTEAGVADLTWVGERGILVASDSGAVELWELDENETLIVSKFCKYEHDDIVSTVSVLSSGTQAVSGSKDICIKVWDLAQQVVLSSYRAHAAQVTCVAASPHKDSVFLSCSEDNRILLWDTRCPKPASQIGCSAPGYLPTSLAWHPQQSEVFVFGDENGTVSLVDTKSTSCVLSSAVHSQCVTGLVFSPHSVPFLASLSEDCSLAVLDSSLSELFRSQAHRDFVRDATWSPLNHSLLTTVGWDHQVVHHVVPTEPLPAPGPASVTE
row,pEC50,Compound
1,6.78,"Cc1cccc([C@@H](O)[C@H]2O[C@@H](n3ccc4c(N)ncnc43)[C@H](O)[C@]2(C)O)c1 [Example 38, 7-[(5R)-3-C-methyl-5-C-(3-methylphenyl)-beta-D-ribofuranosyl]-7H-pyrrolo[2,3-d]pyrimidin-4-amine]"
2,6.69,"C[C@@]1(O)[C@@H]([C@H](O)c2ccccc2)O[C@@H](n2ccc3c(N)ncnc32)[C@@H]1O [Example 11, 7-[(5R)-3-C-methyl-5-C-phenyl-beta-D-ribofuranosyl]-7H-pyrrolo[2,3-d]pyrimidin-4-amine]"
3,8.25,"C[C@]1(O)[C@@H](O)[C@H](n2ccc3c(N)ncnc32)O[C@@H]1[C@](C)(O)c1cc(C(F)F)c(F)c2c1CNCC2 [Example 10, (2R,3S,4R,5R)-5-(4-amino-7H-pyrrolo[2,3-d]pyrimidin-7-yl)-2-((R)-1-(6-(difluoromethyl)-5-fluoro-1,2,3,4-tetrahydroisoquinolin-8-yl)-1-hydroxyethyl)-3-methyltetrahydrofuran-3,4-diol]"
4,< 5.00,"C[C@@]1(O)[C@@H]([C@H](O)c2ccc(F)cc2Cl)O[C@@H](n2ccc3c(N)ncnc32)[C@@H]1O [Example 48, 7-[(5R)-5-C-(2-chloro-4-fluorophenyl)-3-C-methyl-beta-D-ribofuranosyl]-7H-pyrrolo[2,3-d]pyrimidin-4-amine]"
5,7.19,"Cc1ncnc2c1ccn2[C@@H]1O[C@H]([C@@H](C)c2cccc3c2CNCC3)[C@@](C)(O)[C@H]1O [Example 87, (2R,3S,4R,5R)-3-methyl-5-(4-methyl-7H-pyrrolo[2,3-d]pyrimidin-7-yl)-2-((S)-1-(1,2,3,4-tetrahydroisoquinolin-8-yl)ethyl)tetrahydrofuran-3,4-diol]"
6,< 5.00,"C[C@@]1(O)[C@@H]([C@@H](O)c2ccc(F)cc2Cl)O[C@@H](n2ccc3c(N)ncnc32)[C@@H]1O [Example 49, 7-[(5S)-5-C-(2-chloro-4-fluorophenyl)-3-C-methyl-beta-D-ribofuranosyl]-7H-pyrrolo[2,3-d]pyrimidin-4-amine]"
7,6.85,"C[C@@]1(O)[C@@H]([C@H](O)c2cccc(F)c2)O[C@@H](n2ccc3c(N)ncnc32)[C@@H]1O [Example 20, 7-[(5R)-5-C-(3-fluorophenyl)-3-C-methyl-beta-D-ribofuranosyl]-7H-pyrrolo[2,3-d]pyrimidin-4-amine]"
8,8.17,"C[C@@]1(O)[C@@H]([C@H](O)c2cc(F)cc(C(F)F)c2F)O[C@@H](n2ccc3c(N)ncnc32)[C@@H]1O [Example 6, (2R,3S,4R,5R)-5-(4-amino-7H-pyrrolo[2,3-d]pyrimidin-7-yl)-2-((R)-(3-(difluoromethyl)-2,5-difluorophenyl)(hydroxy)methyl)-3-methyltetrahydrofuran-3,4-diol]"
9,8.13,"Cc1ncnc2c1ccn2[C@@H]1O[C@H]([C@@H](O)c2cc(C(F)F)c(F)c3c2CNCC3)[C@@](C)(O)[C@H]1O (single isomer, unassigned) [Example 90]"
10,5.97,"C[C@@]1(O)[C@@H]([C@H](O)c2cccc(F)c2F)O[C@@H](n2ccc3c(N)ncnc32)[C@@H]1O [Example 44, 7-[(5R)-5-C-(2,3-difluorophenyl)-3-C-methyl-beta-D-ribofuranosyl]-7H-pyrrolo[2,3-d]pyrimidin-4-amine]"
11,6.92,"C[C@H](c1cc(F)cc(C(F)F)c1)[C@H]1O[C@@H](n2ccc3c(N)ncnc32)[C@H](O)[C@]1(C)O (single isomer, unassigned) [Example 83]"
12,7.49,"C[C@@]1(O)[C@@H]([C@H](O)c2cccc(C(F)F)c2)O[C@@H](n2ccc3c(N)ncnc32)[C@@H]1O [Example 56, 7-{(5R)-5-C-[3-(difluoromethyl)phenyl]-3-C-methyl-beta-D-ribofuranosyl}-7H-pyrrolo[2,3-d]pyrimidin-4-amine]"
13,7.85,"C[C@@]1(O)[C@@H]([C@H](O)c2cc(Cl)cc(Cl)c2)O[C@@H](n2ccc3c(N)ncnc32)[C@@H]1O [Example 18, 7-[(5R)-5-C-(3,5-dichlorophenyl)-3-C-methyl-beta-D-ribofuranosyl]-7H-pyrrolo[2,3-d]pyrimidin-4-amine]"
14,< 5.00,"C[C@]1(O)[C@@H](O)[C@H](n2ccc3c(N)ncnc32)O[C@@H]1[C@@](C)(O)c1ccnc(C(F)F)c1 [Example 81, 7-{6-deoxy-5-C-[2-(difluoromethyl)pyridin-4-yl]-3-C-methyl-beta-D-allofuranosyl}-7H-pyrrolo[2,3-d]pyrimidin-4-amine]"
15,7.12,"Cc1ncnc2c1ccn2[C@@H]1O[C@H]([C@H](O)c2cc(C(F)F)c(F)c3c2CNCC3)[C@@](C)(O)[C@H]1O (single isomer, unassigned) [Example 89]"
16,< 5.00,"Cc1cccc([C@H](O)[C@H]2O[C@@H](n3ccc4c(N)ncnc43)[C@H](O)[C@]2(C)O)c1 [Example 39, 7-[(5S)-3-C-methyl-5-C-(3-methylphenyl)-beta-D-ribofuranosyl]-7H-pyrrolo[2,3-d]pyrimidin-4-amine]"
17,< 5.00,"C[C@@]1(O)[C@@H]([C@@H](O)c2ccccc2)O[C@@H](n2ccc3c(N)ncnc32)[C@@H]1O [Example 12, 7-[(5S)-3-C-methyl-5-C-phenyl-beta-D-ribofuranosyl]-7H-pyrrolo[2,3-d]pyrimidin-4-amine]"
18,< 5.00,"C[C@@]1(O)[C@@H]([C@@H](O)c2ccc(Cl)cc2F)O[C@@H](n2ccc3c(N)ncnc32)[C@@H]1O [Example 43, 7-[(5S)-5-C-(4-chloro-2-fluorophenyl)-3-C-methyl-beta-D-ribofuranosyl]-7H-pyrrolo[2,3-d]pyrimidin-4-amine]"
19,7.23,"C[C@@]1(O)[C@@H]([C@H](O)c2cc(F)cc(F)c2)O[C@@H](n2ccc3c(N)ncnc32)[C@@H]1O [Example 22, 7-[(5R)-5-C-(3,5-difluorophenyl)-3-C-methyl-beta-D-ribofuranosyl]-7H-pyrrolo[2,3-d]pyrimidin-4-amine]"
20,5.85,"C[C@@]1(O)[C@@H]([C@H](O)c2ccnc(C(F)F)c2)O[C@@H](n2ccc3c(N)ncnc32)[C@@H]1O [Example 78, 7-{(5R)-5-C-[2-(difluoromethyl)pyridin-4-yl]-3-C-methyl-beta-D-ribofuranosyl}-7H-pyrrolo[2,3-d]pyrimidin-4-amine]"
21,6.73,"C[C@@]1(O)[C@@H]([C@H](O)c2ccc(F)c(F)c2)O[C@@H](n2ccc3c(N)ncnc32)[C@@H]1O [Example 1, (2R,3S,4R,5R)-5-(4-amino-7H-pyrrolo[2,3-d]pyrimidin-7-yl)-2-((R)-(3,4-difluorophenyl)(hydroxy)methyl)-3-methyltetrahydrofuran-3,4-diol]"
22,6.44,"C[C@]1(O)[C@@H](O)[C@H](n2ccc3c(N)ncnc32)O[C@@H]1[C@](C)(O)c1ccnc(C(F)F)c1 [Example 80, 7-{6-deoxy-5-C-[2-(difluoromethyl)pyridin-4-yl]-3-C-methyl-alpha-L-talofuranosyl}-7H-pyrrolo[2,3-d]pyrimidin-4-amine]"
23,5.69,"C[C@@]1(O)[C@@H]([C@H](O)c2cc(C(F)F)ccn2)O[C@@H](n2ccc3c(N)ncnc32)[C@@H]1O [Example 72, 7-{(5R)-5-C-[4-(difluoromethyl)pyridin-2-yl]-3-C-methyl-beta-D-ribofuranosyl}-7H-pyrrolo[2,3-d]pyrimidin-4-amine]"
24,< 5.00,"C[C@@]1(O)[C@@H]([C@@H](O)c2cccc(C(F)(F)F)c2)O[C@@H](n2ccc3c(N)ncnc32)[C@@H]1O [Example 55, 7-{(5S)-3-C-methyl-5-C-[3-(trifluoromethyl)phenyl]-beta-D-ribofuranosyl}-7H-pyrrolo[2,3-d]pyrimidin-4-amine]"
25,5.18,"C[C@@]1(O)[C@@H]([C@@H](O)c2cc(F)cc(C(F)F)c2F)O[C@@H](n2ccc3c(N)ncnc32)[C@@H]1O [Example 7, (2R,3S,4R,5R)-5-(4-amino-7H-pyrrolo[2,3-d]pyrimidin-7-yl)-2-((S)-(3-(difluoromethyl)-2,5-difluorophenyl)(hydroxy)methyl)-3-methyltetrahydrofuran-3,4-diol]"
26,6.39,"C[C@@]1(O)[C@@H]([C@H](O)c2cccc(Cl)c2F)O[C@@H](n2ccc3c(N)ncnc32)[C@@H]1O [Example 46, 7-[(5R)-5-C-(3-chloro-2-fluorophenyl)-3-C-methyl-beta-D-ribofuranosyl]-7H-pyrrolo[2,3-d]pyrimidin-4-amine]"
27,< 5.00,"C[C@@]1(O)[C@@H]([C@@H](O)c2ccc(F)c(F)c2F)O[C@@H](n2ccc3c(N)ncnc32)[C@@H]1O [Example 51, 7-[(5S)-3-C-methyl-5-C-(2,3,4-trifluorophenyl)-beta-D-ribofuranosyl]-7H-pyrrolo[2,3-d]pyrimidin-4-amine]"
